Among the test systems are CMS; CHRF288-11; CMK; ML-2; M07e; U937; MV4-11; MOLM-13.
What all share (design): species or system AML cell lines (8); Primary HTS, single concentration about 10 uM, Cell Titer Glo viability; log10 luminescence, per cent inhibition relative to cycloheximide control
What all share (details): 72 h, relative to cycloheximide control, log10 luminescence, inhibitor
A general note: In ATP-based viability assays light output follows the ATP content of the culture.

Structures are written as SMILES. Counter-ions that a name gives are not always drawn. Like-named read-outs stand apart in the source and are kept apart here.

Take `CNC(=O)c1ncccc1Nc1nc(Nc2cc3c(cc2OC)CCCN3C(=O)CN(C)C)nc2[nH]ccc12` [SJ000573036-1, N6938-65-1]: the CMS %inh in the assay on CMS amounted to 1.812%. Besides, the CHRF288-11 %inh in the assay on CHRF288-11 is 21.29%. In addition, the CMK %inh in the assay on CMK is 7.075%. In addition, the ML-2 %inh in the assay on ML-2 was 45.98%. For the same molecule, in the assay with M07e, the M07e %inh turned out to be 30.44%. In the assay with U937, the U937 %inh came out at 17.5%. In the assay on MV4-11, the MV4-11 %inh came to 4.775%. In the assay with MOLM-13, the MOLM-13 %inh is 47.47%.
For `CCCC(CCC)C(=O)O` [SJ000287008-5, VALPROATE SODIUM | VALPROIC ACID SODIUM | DIVALPROEX SODIUM | SODIUM VALPROATE | ABBOTT-44090 | NIK-313 | NIK-317 | VALPROATE SODIUM | VALPROIC ACID SODIUM SALT | | SODIUM VALPROATE | VALPROATE SODIUM | VALPROIC ACID SODIUM SALT | ABBOTT-44090 | NIK-313 | NIK-317 | | SODIUM VALPROATE | VALPROIC ACID SODIUM SALT (SODIUM VALPROATE)], the CMS %inh in the assay with CMS (CMS %inh, 10 µM) was 1.675%. For the same molecule, the CHRF288-11 %inh with CHRF288-11 (CHRF288-11 %inh, 10 µM) amounted to 8.896%. In the assay with CMK (CMK %inh, 10 µM), the CMK %inh is reported as -3.296%. Moreover, the ML-2 %inh in the assay with ML-2 (ML-2 %inh, 10 µM) is 0.7854%. In the assay with M07e (M07e %inh, 10 µM), the M07e %inh was -4.206%. Further, the U937 %inh in the assay on U937 (U937 %inh, 10 µM) is listed as -1.54%. The MV4-11 %inh with MV4-11 (MV4-11 %inh, 10 µM) is reported as -0.02212%. Further, in the assay on MOLM-13 (MOLM-13 %inh, 10 µM), the MOLM-13 %inh is -1.216%.
In the case of `CCn1c(-c2nonc2N)nc2c(C#CC(C)(C)O)ncc(OCC3CCNCC3)c21` [SJ000573338-1, N3180-49-A1], in the assay with CMS, the CMS %inh was 4.398%. Further, in the assay with CHRF288-11, the CHRF288-11 %inh is listed as -0.2898%. Moreover, the CMK %inh in the assay with CMK was determined as 1.889%. Besides, the ML-2 %inh in the assay on ML-2 is reported as 1.732%. Further, in the assay with M07e, the M07e %inh is on record as -1.564%. Also, in the assay on U937, the U937 %inh came out at 25.28%. In the assay on MV4-11, the MV4-11 %inh stood at 8.685%. In addition, the MOLM-13 %inh in the assay with MOLM-13 was found to be 4.413%.
In the case of `COc1ccc(-c2nn3ncccc3c2-c2ccnc(Nc3ccc4c(c3)OCCO4)n2)cc1` [SJ000573078-1, U17838/181/2], the CMS %inh with CMS is 4.836%. Moreover, the CHRF288-11 %inh in the assay with CHRF288-11 amounted to 4.025%. The CMK %inh in the assay on CMK is reported as -0.1559%. Further, the ML-2 %inh in the assay on ML-2 is on record as 1.307%. In the assay on M07e, the M07e %inh is given as 5.255%. For the same molecule, the U937 %inh with U937 came to 3.638%. The MV4-11 %inh with MV4-11 was -0.1391%. The MOLM-13 %inh in the assay with MOLM-13 is given as 3.964%.
On to `Cn1c(=O)c(Oc2ccc(F)cc2F)cc2cnc(NCC(C)(C)O)nc21` [SJ000581138-1], for which, in the assay on CMS, the CMS %inh was found to be 0.7178%. The CHRF288-11 %inh in the assay on CHRF288-11 is reported as 7.837%. The CMK %inh in the assay on CMK stood at 2.21%. In the assay on ML-2, the ML-2 %inh is on record as -0.3186%. The M07e %inh with M07e was 5.81%. Further, the U937 %inh in the assay on U937 is on record as 1.09%. The MV4-11 %inh with MV4-11 is on record as 3.026%. Also, in the assay on MOLM-13, the MOLM-13 %inh turned out to be 1.398%.
`c1cnn2ncc(-c3ccnc(Nc4ccc5c(c4)OCCO5)n3)c2c1` [SJ000573318-1, U18020/87/1]: the CMS %inh in the assay with CMS is 106%. For the same molecule, the CHRF288-11 %inh in the assay with CHRF288-11 was found to be 71.61%. Further, the CMK %inh with CMK came out at 109.1%. In addition, the ML-2 %inh in the assay on ML-2 is on record as 59.44%. Also, the M07e %inh with M07e is 112.6%. In addition, the U937 %inh in the assay on U937 turned out to be 81.34%. In the assay on MV4-11, the MV4-11 %inh turned out to be 79.44%. The MOLM-13 %inh with MOLM-13 is recorded as 99.59%.
On to `CCn1c(-c2nonc2N)nc2ccncc21` [SJ000573203-1, JS100940-045A1], for which the CMS %inh in the assay on CMS is -0.06255%. Moreover, the CHRF288-11 %inh in the assay with CHRF288-11 is reported as 39.85%. The CMK %inh in the assay on CMK turned out to be 40.02%. Also, the ML-2 %inh in the assay with ML-2 is 2.303%. Moreover, in the assay on M07e, the M07e %inh is listed as -2.227%. The U937 %inh with U937 was 1.08%. Moreover, the MV4-11 %inh with MV4-11 is given as -1.945%. Besides, the MOLM-13 %inh in the assay on MOLM-13 turned out to be 0.1335%.
Turning to `CCCCC[C@](C)(O)/C=C/[C@@H]1[C@@H](C/C=C\CCCC(=O)O)[C@@H](O)C[C@H]1O` [SJ000565165-1, CARBOPROST TROMETHAMINE], the CMS %inh with CMS is reported as 2.5%. In addition, the CHRF288-11 %inh with CHRF288-11 was determined as 21.89%. Further, the CMK %inh in the assay on CMK is -7.865%. For the same molecule, the ML-2 %inh in the assay with ML-2 is 2.687%. Also, the M07e %inh with M07e was -0.103%. The U937 %inh in the assay with U937 is reported as -1.422%. The MV4-11 %inh with MV4-11 was 1.156%. In the assay on MOLM-13, the MOLM-13 %inh came out at 2.726%.
Turning to `[O-][S+]1CCN(Cc2ccc(-c3ccc4ncnc(Nc5ccc(OCc6cccc(F)c6)c(Cl)c5)c4c3)o2)CC1` [SJ000573006-1, U16708/127/1], in the assay with CMS, the CMS %inh came out at 4.852%. In addition, the CHRF288-11 %inh in the assay on CHRF288-11 was 12.8%. In addition, the CMK %inh in the assay with CMK is listed as 4.042%. For the same molecule, the ML-2 %inh in the assay with ML-2 worked out at 0.7137%. Besides, the M07e %inh with M07e is given as -1.786%. In the assay with U937, the U937 %inh is listed as -0.3031%. Further, the MV4-11 %inh with MV4-11 is -1.095%. The MOLM-13 %inh in the assay on MOLM-13 is on record as -0.7641%.
Regarding `Nc1ncnc2occ(-c3ccc(NC(=O)Nc4cc(C(F)(F)F)cc(C(F)(F)F)c4)cc3)c12` [SJ000573331-1, T299/133/15], the CMS %inh in the assay with CMS was 4.245%. Moreover, the CHRF288-11 %inh in the assay with CHRF288-11 was 6.057%. Moreover, the CMK %inh in the assay with CMK stood at 3.982%. Further, the ML-2 %inh in the assay on ML-2 came out at 1.52%. Further, the M07e %inh with M07e was determined as 1.156%. Besides, in the assay with U937, the U937 %inh was found to be 4.807%. In the assay with MV4-11, the MV4-11 %inh was 73.61%. Further, the MOLM-13 %inh in the assay with MOLM-13 is given as 93.65%.
Take `O=C(NCC1CC1)c1ccc(-c2cccc(C(=O)NC3CC3)c2)cc1` [SJ000573345-1, R5419/155/1]: in the assay on CMS, the CMS %inh is recorded as 0.2631%. In the assay with CHRF288-11, the CHRF288-11 %inh is -1.419%. The CMK %inh in the assay with CMK was 6.153%. Moreover, the ML-2 %inh in the assay with ML-2 turned out to be 0.3479%. Besides, the M07e %inh in the assay on M07e was 0.9268%. For the same molecule, the U937 %inh in the assay on U937 is 0.894%. The MV4-11 %inh with MV4-11 is on record as 3.005%. In the assay on MOLM-13, the MOLM-13 %inh came to 4.094%.
On to `Cn1c(-c2nonc2N)nc2cnccc21` [SJ000573229-1, SD100950-025A1], for which, in the assay with CMS, the CMS %inh worked out at 2.573%. Moreover, in the assay with CHRF288-11, the CHRF288-11 %inh is reported as 1.476%. In addition, the CMK %inh in the assay with CMK was 8.868%. Moreover, in the assay on ML-2, the ML-2 %inh was found to be 1.359%. Also, the M07e %inh in the assay on M07e is given as -6.783%. Besides, in the assay with U937, the U937 %inh was determined as 2.832%. For the same molecule, the MV4-11 %inh with MV4-11 was 1.313%. Besides, the MOLM-13 %inh with MOLM-13 was 0.5998%.
In the case of `Cc1ccccc1-n1ncc(C(=O)c2ccccc2)c1N` [SJ000581031-1], the CMS %inh in the assay on CMS is reported as -2.229%. Moreover, in the assay with CHRF288-11, the CHRF288-11 %inh is -2.402%. Further, the CMK %inh in the assay with CMK was -0.4181%. In the assay on ML-2, the ML-2 %inh worked out at 1.074%. Further, the M07e %inh in the assay with M07e came to 0.1374%. For the same molecule, the U937 %inh in the assay on U937 is 4.01%. Further, in the assay on MV4-11, the MV4-11 %inh was -0.9776%. For the same molecule, the MOLM-13 %inh in the assay with MOLM-13 was determined as 0.4251%.
Take `CCC1(C)CC(=O)NC1=O` (centres unmarked) [SJ000285397-7, ETHOSUXIMIDE]: in the assay with CMS, the CMS %inh is recorded as -0.558%. The CHRF288-11 %inh with CHRF288-11 is 0.04293%. The CMK %inh in the assay with CMK is -1.781%. Further, the ML-2 %inh with ML-2 was 3.243%. For the same molecule, the M07e %inh with M07e is -0.04938%. Besides, the U937 %inh with U937 is 0.5757%. Further, the MV4-11 %inh with MV4-11 is -0.6847%. Besides, the MOLM-13 %inh with MOLM-13 is 28.73%.
As for `CC1/C=C/C=C/C=C/C=C/C=C/C=C/C=C/C(OC2O[C@H](C)[C@@H](O)[C@H](N)[C@@H]2O)CC(O)C(C(=O)O)C(O)CC(=O)CC(O)CC(O)CC(O)CC(=O)CCCC(=O)CC(=O)OC1C(C)CC(C)C(O)CC(=O)c1ccc(N)cc1` (single isomer, unassigned) [SJ000565161-1, CANDICIDIN], the CMS %inh in the assay on CMS (CMS %inh, 10 µM) is 12.57%. The CHRF288-11 %inh in the assay on CHRF288-11 (CHRF288-11 %inh, 10 µM) is given as 56.49%. For the same molecule, the CMK %inh in the assay on CMK (CMK %inh, 10 µM) turned out to be 120.6%. Moreover, in the assay with ML-2 (ML-2 %inh, 10 µM), the ML-2 %inh stood at 42.43%. Besides, the M07e %inh with M07e (M07e %inh, 10 µM) came out at 2.094%. Moreover, the U937 %inh in the assay with U937 (U937 %inh, 10 µM) was 16.5%. The MV4-11 %inh with MV4-11 (MV4-11 %inh, 10 µM) came out at 39.81%. In addition, in the assay on MOLM-13 (MOLM-13 %inh, 10 µM), the MOLM-13 %inh came to 72.78%.
Regarding `COc1cccc(C2=C(c3cn(C)c4ccccc34)C(=O)NC2=O)c1` [SJ000581051-1], the CMS %inh with CMS worked out at 3.466%. Besides, the CHRF288-11 %inh in the assay on CHRF288-11 is 11.8%. The CMK %inh in the assay with CMK was -3.208%. Further, the ML-2 %inh with ML-2 is -0.8075%. The M07e %inh with M07e is reported as 5.285%. For the same molecule, the U937 %inh with U937 was -2.854%. For the same molecule, in the assay on MV4-11, the MV4-11 %inh stood at 1.602%. In addition, the MOLM-13 %inh in the assay on MOLM-13 was 1.318%.

The values above are taken from publication PMC6522510 (Nature Communications, 2019).
